Patent US20210379035A1, “Methods Of Treating Fabry Patients Having Renal Impairment” (Amicus Therapeutics, Inc., priority 2017, published 2021)

Test system: Fabry patients
Assay: Long-term analysis of 12 patients that completed multiple studies: eGFR
Format: in vivo, human
Conditions: 11 patients who received migalastat HCl 150 mg QOD for ≥17 months (mean exposure, 4-5 years)
Text: In addition to the studies described above, other patients also received migalastat therapy in other studies such as dose-finding studies and/or long-term extension studies. […] 12 patients that completed multiple studies were further analyzed. Linear regression was used to calculate the annualized rate of change in […] from baseline.

Compound: Cl.OC[C@H]1NC[C@H](O)[C@@H](O)[C@H]1O [migalastat HCl, migalastat hydrochloride]
- annualized mean change in eGFRCKD-EPI: 0.24 mL/min/1.72 m^2
